# From US20250049830A1, “PHARMACEUTICAL COMPOSITION FOR PREVENTING OR TREATING CANCER, COMPRISING SGLT-2 INHIBITOR AND GOSSYPOL” (HAIM BIO., LTD., priority 2019, published 2025)
# “Also recorded” adds a separate entry of the source.
# Legend:
# Format in all cases: cell-based, human
# [1] = tested on: lung cancer cell line A549; experiment: Cell viability (Cell Counting Kit-8) of lung cancer cell line A549 after drug treatment; settings: SGLT-2 inhibitor 50 μM, gossypol 5 μM, phenformin 10 μM, FIG. 1c
# Protocol: (§1) Each of the cell lines was cultured according to the ATCC guidelines in 10% FBS-containing RPMI 1640, DMEM, or Eagle's MEM medium supplemented with 1% penicillin-streptomycin (Gibco) in a 5% CO2 incubator (HERAcell 150i, Thermo Scientific, Waltham, MA, USA) at 37° C. and was used in the experiment.
# The lung cancer cell line A549 cells prepared by the method of Example 1 were seeded into a 96-well plate at a concentration of 1×10^4 cells/well and cultured overnight at 37° C. in a 5% CO2 environment. […]
# Thereafter, 100 μL of each cell culture and 10 μL of incubation buffer (CCK) were mixed together, placed in a 96-well plate, and incubated at room temperature for 1 hour, and then the absorbance was measured at a wavelength of 450 nm using a spectrophotometer (Synergy HTX Multi-Reader, BioTek, Winooski, VT, USA). At the same time, the number of cells in each sample was measured with a cell viability assay kit (Cell Counting Kit-8), and the measured value was calculated as a percentage of the number of cells in the negative control group to compare the number of cells between the samples. All experiments were repeated several times and the measured values were averaged.
# [2] = tested on: pancreatic cancer cell line Mia Paca-2; experiment: Cell viability (Cell Counting Kit-8) of pancreatic cancer cell line Mia Paca-2 after drug treatment; settings: SGLT-2 inhibitor with gossypol and/or phenformin, FIGS. 2b, 2c
# Protocol: as §1
# At the same time, the number of cells in each sample was measured with a cell viability assay kit (Cell Counting Kit-8), and the measured value was calculated as a percentage of the number of cells in the negative control group to compare the number of cells between the samples. All experiments were repeated several times and the measured values were averaged. […] The numerical values on the drawings according to all examples below are expressed as mean±standard error of the mean (SEM), and * indicates statistical significance (**P<0.01, ***P<0.001).
# According to the methods of Example 1 and Example 2, the pancreatic cancer cell line Mia Paca-2 cells were cultured, and then each drug was administered to the cells, followed by analysis of the cell viability.
# [3] = tested on: brain cancer cell line U87; experiment: Cell viability (Cell Counting Kit-8) of brain cancer cell line U87 after drug treatment; settings: SGLT-2 inhibitor with gossypol and phenformin, FIGS. 3b, 3c
# Protocol: The present inventors obtained the human lung cancer cell line A549, the pancreatic cancer cell line Mia Paca-2, the brain cancer cell line U87, and the colon cancer cell line SW480 from the American Type Culture Collection (ATCC). Each of the cell lines was cultured according to the ATCC guidelines in 10% FBS-containing RPMI 1640, DMEM, or Eagle's MEM medium supplemented with 1% penicillin-streptomycin (Gibco) in a 5% CO2 incubator (HERAcell 150i, Thermo Scientific, Waltham, MA, USA) at 37° C. and was used in the experiment.
# At the same time, the number of cells in each sample was measured with a cell viability assay kit (Cell Counting Kit-8), and the measured value was calculated as a percentage of the number of cells in the negative control group to compare the number of cells between the samples. All experiments were repeated several times and the measured values were averaged.
# According to the methods of Example 1 and Example 2, the brain cancer cell line U87 cells were cultured, and then each drug was administered to the cells, followed by analysis of the cell viability.
# U87 tumor spheroids = experiment: Tumor spheroid size/diameter of U87 cell line after drug administration; settings: for size of the tumor spheroid cells (cell photographs): 14 days, gossypol 5 μM, phenformin 10 μM; for size of the cells (cell photographs): SGLT-2 inhibitor alone or in combination with gossypol and phenformin, FIG. 9
# Protocol: The U87 cell line cells prepared according to the method of Example 1 were seeded into a 96-well plate at a density of 1.0×10^2 cells/well in DMEM media containing 2% Matrigel (Corning, NY, USA), and stabilized in a 5% CO2 incubator at 37° C. for 3 days to form tumor spheroids. After stabilization, the cells were cultured in a 5% CO2 incubator at 37° C. for 14 days. […] Referring to FIGS. 6b, 7b and 8b, the rate of change in diameter of the spheroid in the graph was calculated as a percentage based on the change in the average diameter after administration of each drug compared to the average diameter of tumor spheroid cells seeded in the 96-well plate.
# [4] = tested on: lung cancer line A549 cells; experiment: Oxygen consumption rate (OCR) during mitochondrial respiration, Seahorse XF24, A549; settings: SGLT-2 inhibitor 50 μM, gossypol 5 μM, phenformin 10 μM, alone or in combination, overnight, FIG. 10
# Protocol: In order to measure mitochondrial respiration, which is the main energy metabolic process of cells, the present inventors analyzed cellular oxygen consumption rate (OCR) by measuring intracellular oxygen concentration. The oxygen consumption rate that occurs during energy metabolism can be a measure of how actively cancer cell division occurs during the metabolic process of cancer cells. 1 mL of XF Calibrant buffer (Agilent Technologies) was added to a sensor cartridge (Agilent Technologies, Palo Alto, CA, USA) and incubated in a non-CO2 incubator overnight at 37° C. […] In addition, the XF24 microplate was placed in the Agilent seahorse XF24 (Agilent Technologies) instrument, and OCR was measured. Here, the measured values were compared with percentage values based on picomoles per minute (pM/min).
# [5] = Comparative Example 1: canagliflozin 50 μM, FIG. 6a
# [6] = Comparative Example 3: empagliflozin 75 μM, FIG. 8a
SMILES,synergistic effect when administered in combination with gossypol and phenformin [1],cancer therapeutic effect of co-administration compared to SGLT-2 inhibitor alone [2],cancer therapeutic effect of co-administration compared to SGLT-2 inhibitor alone [3],size of the tumor spheroid cells (cell photographs) (U87 tumor spheroids; [5]),size of the cells (cell photographs) (U87 tumor spheroids),oxygen consumption rate [4],size of the tumor spheroid cells (cell photographs) (U87 tumor spheroids; [6]),"size of the tumor spheroid cells (cell photographs) (U87 tumor spheroids; Comparative Example 2: dapagliflozin 75 μM, FIG. 7a)"
Cc1ccc([C@@H]2O[C@H](CO)[C@@H](O)[C@H](O)[C@H]2O)cc1Cc1ccc(-c2ccc(F)cc2)s1 [canagliflozin],highest synergistic effect,more effective,better effect,decreased,decreased compared to that in the control group; also recorded: most significant reduction in the cell size,–,–,–
OC[C@H]1O[C@@H](c2ccc(Cl)c(Cc3ccc(O[C@H]4CCOC4)cc3)c2)[C@H](O)[C@@H](O)[C@@H]1O [empagliflozin],–,–,–,–,decreased compared to that in the control group,also low,decreased,–
[H]/N=C(/N)N/C(=N/[H])NCCc1ccccc1 [phenformin],–,–,–,decreased,–,–,decreased,decreased
